Assay results taken from patent US20170291905A1, “ARGININE […] INHIBITORS AND USES THEREOF” (Epizyme, Inc., priority 2014, published 2017).
Counter-ions that a name gives are not always drawn.

target: full-length human PRMT6 (Flag- and His-tagged) (Homo sapiens, UniProt Q96LA8); experiment: PRMT6 biochemical assay (3H-SAM Flashplate, histone H4 36-50 K44me1 peptide); settings: 1 nM PRMT6, 30 min preincubation, 75 nM peptide
Source text: S-adenosylmethionine (SAM), S-adenosylhomocysteine (SAH), bicine, Tween20, dimethylsulfoxide (DMSO), bovine skin gelatin (BSG), sodium butyrate and Tris(2-carboxyethyl)phosphine hydrochloride solution (TCEP) were purchased from Sigma-Aldrich at the highest level of purity possible. ^3H-SAM was purchase from American Radiolabeled Chemicals with a specific activity of 80 Ci/mmol. 384-well streptavidin Flashplates were purchased from PerkinElmer.
Peptide representative of human histone H4 residues 36-50 was synthesized with an N-terminal linker-affinity tag motif and a C-terminal amide cap by 21st Century Biochemicals. The peptide was purified by high-performance liquid chromatography (HPLC) to greater than 95% purity and confirmed by liquid chromatography mass spectrometry (LC-MS). The sequence was Biot-Ahx-[…]-amide and contained a monomethylated lysine at position 44 (SEQ ID NO.:5).
Full-length human PRMT6 (NM_018137.2) transcript clone was amplified from an HEK 293 cDNA library, incorporating a flanking 5′ sequence encoding a FLAG tag ([…]) (SEQ ID NO.:6) fused directly to Ser 2 of PRMT6 and a 3′ sequence encoding a hexa His sequence (HHHHHH) (SEQ ID NO.: 17) fused directly to Asp 375. The amplified gene was subcloned into pFastBacMam (Viva Biotech).
Recombinant baculovirus were generated according to Bac-to-Bac kit instructions (Life Technologies). […] Infections were carried out at 37° C. for 48 hours, harvested by centrifugation, and stored at −80° C. for purification.
Column was washed with 20 mM imidazole in the same buffer and Flag-PRMT6-His was eluted with 150 mM imidazole. Pooled fractions were dialysed against buffer Ni-A and further purified by anti-flag M2 affinity chromatography. Flag-PRMT6-His was eluted with 200 ug/ml FLAG peptide in the same buffer. Pooled fractions were dialysed in 20 mM Tris, 150 mM NaCl, 10% glycerol and 5 mM β-mercaptoethanol, pH 7.8. The purity of recovered protein was 95%.
General Procedure for PRMT6 Enzyme Assays on Peptide Substrates.
The assays were all performed in a buffer consisting of 20 mM Bicine (pH=7.6), 1 mM TCEP, 0.005% BSG, and 0.002% Tween 20, prepared on the day of use. Compounds in 100% DMSO (1 ul) were spotted into a polypropylene 384-well V-bottom plates (Greiner) using a Platemate Plus outfitted with a 384-channel head (Thermo Scientific). DMSO (1 ul) was added to Columns 11, 12, 23, 24, rows A-H for the maximum signal control and 1 ul of SAH, a known product and inhibitor of PRMT6, was added to columns 11, 12, 23, 24, rows I-P for the minimum signal control. A cocktail (40 ul) containing the PRMT6 enzyme was added by Multidrop Combi (Thermo-Fisher). The compounds were allowed to incubate with PRMT6 for 30 min at room temperature, then a cocktail (10 ul) containing SAM and peptide was added to initiate the reaction (final volume=51 ul). The final concentrations of the components were as follows: PRMT6 was 1 nM, ^3H-SAM was 200 nM, non-radiolabeled SAM was 250 nM, peptide was 75 nM, SAH in the minimum signal control wells was 1 mM, and the DMSO concentration was 2%. The assays were stopped by the addition of non-radiolabeled SAM (10 ul) to a final concentration of 400 uM, which dilutes the ^3H-SAM to a level where its incorporation into the peptide substrate is no longer detectable. 50 ul of the reaction in the 384-well polypropylene plate was then transferred to a 384-well Flashplate and the biotinylated peptides were allowed to bind to the streptavidin surface for at least 1 hour before being washed once with 0.1% Tween20 in a Biotek ELx405 plate washer. The plates were then read in a PerkinElmer TopCount plate reader to measure the quantity of ^3H-labeled peptide bound to the Flashplate surface, measured as disintegrations per minute (dpm) or alternatively, referred to as counts per minute (cpm).
Where dpm=disintegrations per minute, cmpd=signal in assay well, and min and max are the respective minimum and maximum signal controls. […]

Sequence of full-length human PRMT6 (Flag- and His-tagged) (Q96LA8 with tags, fused parts or gaps): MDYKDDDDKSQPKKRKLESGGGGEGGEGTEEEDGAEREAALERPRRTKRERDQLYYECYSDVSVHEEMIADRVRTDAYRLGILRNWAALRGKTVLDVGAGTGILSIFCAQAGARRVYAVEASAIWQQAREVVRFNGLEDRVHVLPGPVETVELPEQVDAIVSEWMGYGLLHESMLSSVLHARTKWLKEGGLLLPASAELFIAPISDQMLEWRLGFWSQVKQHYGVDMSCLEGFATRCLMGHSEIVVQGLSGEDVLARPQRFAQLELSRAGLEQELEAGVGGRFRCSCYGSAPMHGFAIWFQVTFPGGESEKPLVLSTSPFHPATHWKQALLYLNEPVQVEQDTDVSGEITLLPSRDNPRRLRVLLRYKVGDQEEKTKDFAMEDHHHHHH

Compound	IC50 [nM]
CNCCN(C)Cc1c[nH]nc1C1CC(COCC2CC2)CC(COCC2CC2)C1 (stereo not shown) [compound 2]	741
Cc1[nH]nc([C@H]2CC[C@@]3(CC2)CC(C)(C)CO3)c1CN(C)CCN [compound 51, N1-((3-((5s,8s)-3,3-dimethyl-1-oxaspiro[4.5]decan-8-yl)-5-methyl-1H-pyrazol-4-yl)methyl)-N1-methylethane-1,2-diamine]	155
CNCCN(C)Cc1c(Cl)ncn1[C@H]1CC[C@]2(CC1)CC(C)(C)CO2 [compound 97]	3510
CNCCN(C)Cc1nn[nH]c1[C@H]1CC[C@@]2(CC1)CC(C)(C)CO2 [compound 67]	51.1
Cc1[nH]nc(C2CCC3(CC2)CC(C)(C)CO3)c1CN(C)CCN (stereo not shown) [compound 59]	131
CNCCN(C)Cc1cnnn1[C@H]1CC[C@@]2(CC1)CC(C)(C)CO2 [compound 65]	> 10000
CNCCN(C)Cc1nn(C)cc1[C@H]1CC[C@]2(CC1)CC(C)(C)CO2 [compound 103]	405
CNCCN(C)Cc1nncn1[C@H]1CC[C@@]2(CC1)CC(C)(C)CO2 [compound 68]	> 10000
Cc1[nH]nc([C@H]2CC[C@]3(CC2)CC(C)(C)CO3)c1CN(C)CCN [compound 52, N1-((3-((5r,8r)-3,3-dimethyl-1-oxaspiro[4.5]decan-8-yl)-5-methyl-1H-pyrazol-4-yl)methyl)-N1-methylethane-1,2-diamine]	202
CNCCN(C)Cc1nc(C)sc1[C@H]1CC[C@@]2(CC1)CC(C)(C)CO2 [compound 77]	180
CNCCN(C)Cc1n[nH]cc1[C@H]1CC[C@@]2(CC1)CC(C)(C)CO2 [compound 115]	41.6
CCC1CC(c2n[nH]cc2CN(C)CCNC)CC(C(=O)NCCOC)C1(C)C (stereo not shown) [compound 21, 3-ethyl-N-(2-methoxyethyl)-2,2-dimethyl-5-[4-([methyl[2-(methylamino)ethyl]amino]methyl)-1H-pyrazol-3-yl]cyclohexane-1-carboxamide dihydrochloride]	789
CCOCC1(COCC)CCC(c2n[nH]cc2CN(C)CCN(C)C)CC1 [compound 121]	79.3
CNCCN(C)Cc1ccnn1[C@H]1CC[C@]2(CC1)CC(C)(C)CO2 [compound 50, N1-((1-((5r,8r)-3,3-dimethyl-1-oxaspiro[4.5]decan-8-yl)-1H-pyrazol-5-yl)methyl)-N1,N2-dimethylethane-1,2-diamine]	502
CNCCN(C)Cc1nnc(C)n1[C@H]1CC[C@@]2(CC1)CC(C)(C)CO2 [compound 71]	> 10000
CNCCN(C)Cc1cncn1[C@H]1CC[C@@]2(CC1)CC(C)(C)CO2 [compound 76]	181
CNCCN(C)Cc1nocc1[C@H]1CC[C@@]2(CC1)CC(C)(C)CO2 [compound 117]	1310
CN(CCN)Cc1nn(C)cc1[C@H]1CC[C@]2(CC1)CC(C)(C)CO2 [compound 102]	1140
CNCCN(C)Cc1nn[nH]c1[C@H]1CC[C@]2(CC1)CC(C)(C)CO2 [compound 89]	428
CNCCN(C)Cc1c[nH]nc1C1=CCC(COCC(F)(F)F)CC1 (stereo not shown) [compound 16, N1,N2-dimethyl-N1-((3-(4-((2,2,2-trifluoroethoxy)methyl)cyclohex-1-en-1-yl)-1H-pyrazol-4-yl)methyl)ethane-1,2-diamine]	17
CCOCC1(COCC)CCC(c2nn(C)cc2CN(C)CCN)CC1 [compound 124]	58.1
CCOCC1(COCC)CC=C(c2n[nH]cc2CN(C)CCNC)CC1 [compound 60]	41.1
CNCCN(C)Cc1cn(C)nc1C1CCC(C)(C)[C@@H](C(=O)NCC(C)C)C1 (stereo partly shown) [compound 25]	1610
CNCCN(C)Cc1scnc1[C@H]1CC[C@]2(CC1)CC(C)(C)CO2 [compound 84]	89.3
CNCCN(C)Cc1c(C)noc1[C@H]1CC[C@@]2(CC1)CC(C)(C)CO2 [compound 113]	1150
CNCCN(C)Cc1nn(C)nc1C1CCC2(CC1)CC(C)(C)CO2 (stereo not shown) [compound 86]	444
CNCCN(C)Cc1c[nH]nc1C1CCC(OCCCOC)C2(CCCC2)C1 (mixture of isomers) [compound 19, N1-((3-(10-(3-methoxypropoxy)spiro[4.5]decan-7-yl)-1H-pyrazol-4-yl)methyl)-N1,N2-dimethylethane-1,2-diamine dihydrochloride]	191

Other lines, results leading:

IC50 [nM]	Compound
1910	CNCCNCc1c[nH]nc1[C@H]1CC[C@]2(CC1)CC(C)(C)CO2 [compound 29, N1-((3-((5r,8r)-3,3-dimethyl-1-oxaspiro[4.5]decan-8-yl)-1H-pyrazol-4-yl)methyl)-N2-methylethane-1,2-diamine]
132	CC[C@]12CC[C@](CC)(C[C@@H](c3n[nH]cc3CN(C)CCNC)C1)O2 [compound 38, N1-((3-((1R,3s,5S)-1,5-diethyl-8-oxabicyclo[3.2.1]octan-3-yl)-1H-pyrazol-4-yl)methyl)-N1,N2-dimethylethane-1,2-diamine]
20.8	CCC1(CC)C[C@]2(CC[C@H](c3n[nH]cc3CN(C)CCNC)CC2)OC1=O [compound 33, (5s,8s)-3,3-diethyl-8-(4-((methyl(2-(methylamino)ethyl)amino)methyl)-1H-pyrazol-3-yl)-1-oxaspiro[4.5]decan-2-one]
128	CC[C@]12CC[C@](CC)(C[C@H](c3n[nH]cc3CN(C)CCNC)C1)O2 [compound 37, N1-((3-((1R,3r,5S)-1,5-diethyl-8-oxabicyclo[3.2.1]octan-3-yl)-1H-pyrazol-4-yl)methyl)-N1,N2-dimethylethane-1,2-diamine]
13.5	CNCCN(C)Cc1c[nH]nc1C1CCC2(CCC(OC)CC2)CC1 (stereo not shown) [compound 9, N1-((3-(9-methoxyspiro[5.5]undecan-3-yl)-1H-pyrazol-4-yl)methyl)-N1,N2-dimethylethane-1,2-diamine]
163	CNCCN(C)Cc1c(C)[nH]nc1[C@H]1CC[C@]2(CC1)CC(C)(C)CO2 [compound 58]
33.1	CNCCN(C)Cc1c[nH]nc1[C@H]1CC[C@]2(CCCOC2)CC1 [compound 4, N1-((3-((6s,9s)-2-oxaspiro[5.5]undecan-9-yl)-1H-pyrazol-4-yl)methyl)-N1,N2-dimethylethane-1,2-diamine]
10.6	CCC1(CC)C[C@]2(CC[C@@H](c3n[nH]cc3CN(C)CCNC)CC2)OC1=O [compound 34, (5r,8r)-3,3-diethyl-8-(4-((methyl(2-(methylamino)ethyl)amino)methyl)-1H-pyrazol-3-yl)-1-oxaspiro[4.5]decan-2-one]
35.9	CNCCN(C)Cc1c[nH]nc1[C@H]1CC[C@@]2(CCCOC2)CC1 [compound 5, N1-((3-((6r,9r)-2-oxaspiro[5.5]undecan-9-yl)-1H-pyrazol-4-yl)methyl)-N1,N2-dimethylethane-1,2-diamine]
32	CNCCN(C)Cc1c[nH]nc1C1CCC(COCC(C)C)(COCC(C)C)CC1 [compound 6]
94	CNCCN(C)Cc1c(C)[nH]nc1[C@H]1CC[C@@]2(CC1)CC(C)(C)CO2 [compound 57]
23.2	CNCCN(C)Cc1c[nH]nc1[C@H]1CC[C@]2(CCCCO2)CC1 [compound 127, methyl([2-[methyl([3-[(6s,9r)-1-oxaspiro[5.5]undecan-9-yl]-1H-pyrazol-4-yl]methyl)amino]ethyl])amine bistrifluoroacetic acid salt]
98.4	CNCCN(C)Cc1sc(C)nc1[C@H]1CC[C@@]2(CC1)CC(C)(C)CO2 [compound 78]
